According to PubChem BioAssay (NCI):
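GI50 = concentration required for 50% inhibition of growth. TGI is the concentration that stops growth completely.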

Experiments:
Assay in all cases: NCI tumour cell line growth inhibition, 384-well format
[1] = tested on: 786-0 renal
[2] = tested on: LOX IMVI melanoma
[3] = tested on: SF-295 CNS
[4] = tested on: BT-549 breast
[5] = tested on: RPMI-8226 leukemia
[6] = tested on: M14 melanoma
[7] = tested on: NCI-H226 lung
[8] = tested on: NCI-H460 NSCLC
[9] = tested on: MDA-MB-231 breast
[10] = tested on: OVCAR-4 ovarian
[11] = tested on: NCI-H322M lung
[12] = tested on: RXF 393 renal
[13] = tested on: A498 renal
[14] = tested on: SN12C renal
[15] = tested on: HCC-2998 colon
[16] = tested on: UACC-257 melanoma
[17] = tested on: HOP-92 NSCLC
[18] = tested on: KM12 colon
[19] = tested on: NCI-H522 lung
[20] = tested on: MCF7 breast
[21] = tested on: HT29 colon
[22] = tested on: K-562 leukemia
[23] = tested on: OVCAR-5 ovarian
[24] = tested on: IGROV1 ovarian
[25] = tested on: T-47D breast
[26] = tested on: COLO 205 colon
[27] = tested on: HCT-116 colon

SMILES: COc1cc(S(C)(=O)=O)ccc1Nc1nc2ccc(-c3ccc(NC(=O)[C@H](C)c4ccc(F)cc4)cc3)cn2n1
- TGI [1]: > 100 µM
- GI50 [2]: 0.053 µM
- TGI [2]: > 100 µM
- GI50 [3]: > 100 µM
- TGI [3]: > 100 µM
- GI50 [4]: 32.5 µM
- TGI [4]: > 100 µM
- GI50 [5]: 0.137 µM
- TGI [5]: > 100 µM
- GI50 [6]: > 100 µM
- TGI [6]: > 100 µM
- GI50 [7]: > 100 µM
- TGI [7]: > 100 µM
- GI50 [8]: 0.0406 µM
- TGI [8]: > 100 µM
- GI50 [9]: > 100 µM
- TGI [9]: > 100 µM
- GI50 [10]: > 100 µM
- TGI [10]: > 100 µM
- GI50 [11]: > 100 µM
- TGI [11]: > 100 µM
- GI50 [12]: 0.0742 µM
- TGI [12]: 6.48 µM
- GI50 [13]: > 100 µM
- TGI [13]: > 100 µM
- GI50 [14]: > 100 µM
- TGI [14]: > 100 µM
- GI50 [15]: > 100 µM
- TGI [15]: > 100 µM
- GI50 [16]: > 100 µM
- TGI [16]: > 100 µM
- GI50 [17]: 42.1 µM
- TGI [17]: > 100 µM
- GI50 [18]: 61.7 µM
- TGI [18]: > 100 µM
- GI50 [19]: > 100 µM
- TGI [19]: > 100 µM
- GI50 [20]: 4.61 µM
- TGI [20]: > 100 µM
- GI50 [21]: 0.602 µM
- TGI [21]: > 100 µM
- GI50 [22]: 0.777 µM
- TGI [22]: > 100 µM
- GI50 [23]: > 100 µM
- TGI [23]: > 100 µM
- GI50 [24]: > 100 µM
- TGI [24]: > 100 µM
- GI50 [25]: 4.78 µM
- TGI [25]: > 100 µM
- GI50 [26]: 0.0428 µM
- TGI [26]: > 100 µM
- GI50 [27]: 0.0642 µM
- TGI [27]: > 100 µM
